# Source: PubChem BioAssay (NCI)
# Where “and” joins values, the source holds several entries; their conditions need not be identical. Equal entries are not always repeated.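 Method: 48-hour compound exposure of cells in 96-well plates, five concentrations, linear interpolation of endpoints. Here, GI50 denotes the concentration required for 50% inhibition of growth. Definition used: TGI = concentration required for complete inhibition of growth.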
# Legend:
# Assay in all cases: growth of human tumour cells (NCI), 48 h
# [1] = system: PC-3 prostate
# [2] = system: SK-MEL-5 melanoma
# [3] = system: DU-145 prostate
# [4] = system: RPMI-8226 leukemia
# [5] = system: MCF7 breast
# [6] = system: A549 NSCLC
# [7] = system: OVCAR-5 ovarian
# [8] = system: LOX IMVI melanoma
# [9] = system: NCI-H226 lung
# [10] = system: HCT-116 colon
Compound,TGI [1],TGI [2],TGI [3],TGI [4],TGI [5] [µM],TGI [6],TGI [7],TGI [8],TGI [9],TGI [10],GI50 [1] [µM],GI50 [2] [µM],GI50 [3] [µM],GI50 [4] [µM],GI50 [5] [µM],GI50 [6] [µM],GI50 [7] [µM],GI50 [10] [µM],GI50 [8] [µM]
CCSc1nc(-c2cccs2)nc2ccc(I)cc12,> 100 µM,> 100 µM,> 100 µM,> 100 µM,> 100,> 100 µM,> 100 µM,> 100 µM,> 100 µM,> 100 µM,–,–,–,–,–,–,–,–,–
CC1C(=O)C(C)C(c2ccco2)N(N=O)C1c1ccco1 (configuration not stated),–,> 100 µM,–,> 100 µM,> 100,> 100 µM,> 100 µM,> 100 µM,> 100 µM,> 100 µM,–,–,–,–,–,–,–,–,–
C[n+]1c2ccccc2c(CNC(CS)C(=O)O)c2ccccc21 (configuration not stated),–,–,–,50.5 µM,–,83.9 µM,> 100 µM,–,82.1 µM,37.8 µM,–,–,–,–,–,–,–,–,–
O=C(NC(Cc1ccc(I)cc1)C(=O)O)c1ccc(Cl)cc1 (configuration not stated),–,> 100 µM,–,> 100 µM,> 100,> 100 µM,> 100 µM,> 100 µM,> 100 µM,> 100 µM,–,–,–,–,–,–,–,–,–
COC(=O)c1ccccc1C1=C([N+](=O)[O-])C(c2cccc(Br)c2)C(C#N)=C(N)O1 (configuration not stated),> 100 µM,> 100 µM,> 100 µM,> 100 µM,–,> 100 µM,> 100 µM,38.1 µM,> 100 µM,92.9 µM,–,–,–,–,–,–,–,–,–
COc1cc([N+](=O)[O-])ccc1N1C(=O)C2c3[nH]c4ccccc4c3C3CCC(C(C)(C)C)CC3C2C1=O (configuration not stated),> 100 µM,> 100 µM,> 100 µM,> 100 µM,> 100,> 100 µM,> 100 µM,> 100 µM,> 100 µM,> 100 µM,–,–,–,–,–,–,–,–,–
CCOP(=O)(OCC)C(Nc1cccc(F)c1)c1ccc(N(C)C)cc1 (configuration not stated),> 100 µM,> 100 µM,> 100 µM,> 100 µM,> 100,> 100 µM,> 100 µM,> 100 µM,> 100 µM,> 100 µM,–,–,–,–,–,–,–,–,–
CN(C)CCCN1c2ccc([N+](=O)[O-])cc2CCc2cc([N+](=O)[O-])ccc21,31.3 µM and 27 µM,29.5 µM and 23.1 µM,30.2 µM and 33 µM,55.3 µM and 34.1 µM,31.2,32.7 µM and 31.5 µM,28.6 µM and 28 µM,32.4 µM and 26.5 µM,32.8 µM and 33.4 µM,27.4 µM and 27.1 µM,–,–,–,–,–,–,–,–,–
C[N+](C)(C)CCN[N+]1(C)CCCc2ccccc21 (configuration not stated),> 100 µM,> 100 µM,> 100 µM,92.9 µM,> 100,> 100 µM,> 100 µM,> 100 µM,> 100 µM,> 100 µM,–,–,–,–,–,–,–,–,–
CC1(O)COCCCCOc2c(CN)cccc2NC(=O)c2nc(cnc2N)-c2ccc(cc2)S(=O)(=O)C(C)(C)C1 (configuration not stated),2.54 µM,2.56 µM,2.04 µM,3.5 µM,1.89,2.34 µM,3.56 µM,–,–,1.12 µM,1.18,1.25,0.0388,1.2,< 0.01,0.29,2.04,0.129,–
COC(=O)NC1C(C)OC(OC2C/C=C(/C)C3C=CC4C(OC5CC(OC6CC(OC7CC(O)C(O)C(C)O7)C(OC7CC(O)C(OC)C(C)O7)C(C)O6)C(O)C(C)O5)C(C)CC(C)C4C3(C)/C(O)=C3\C(=O)OC4(CC(C)C(CO)=CC4/C=C\2C)C3=O)CC1(C)[N+](=O)[O-] (configuration not stated),> 100 µM,> 100 µM,19.6 µM,7.66 µM,> 100,> 100 µM,42.1 µM,14.8 µM,–,3.09 µM,–,–,–,–,–,–,–,–,–
c1ccc([P+](c2ccccc2)(c2ccccc2)c2ccc(-c3ccc([P+](c4ccccc4)(c4ccccc4)c4ccccc4)cc3)cc2)cc1,73.9 µM,3.32 µM,> 100 µM,> 100 µM,> 100,87.9 µM,> 100 µM,51.9 µM,71 µM,58 µM,–,–,–,–,–,–,–,–,–
CCc1ccc2c(c1)C(=O)c1c-2n(CCCN)c(=O)c2cc([N+](=O)[O-])ccc12,–,3.12 µM,2.05 µM,–,1.6,–,3.59 µM,2.62 µM,–,1.89 µM,–,1.6,0.775,–,0.362,–,2.07,0.573,1.19
CCCCCCCN(CCCCCCC)CC(O)c1cc2ccccc2c2cc(Br)ccc12 (configuration not stated),> 100 µM,–,38.8 µM,> 100 µM,48,–,> 100 µM,> 100 µM,–,> 100 µM,–,–,–,–,–,–,–,–,–
CS(=O)(=O)OCCN(CCOS(C)(=O)=O)c1ccc(/C=N/Nc2ncnc3nc[nH]c23)cc1,–,31.7 µM,–,39 µM,–,96.6 µM,51.4 µM,37.7 µM,51.7 µM,59.9 µM,–,–,–,–,–,–,–,–,–
Oc1ccc(-c2nc3cc(F)ccc3s2)cc1,60 µM,41.6 µM,41.3 µM,60.5 µM,28.5,40.6 µM,58.4 µM,33.3 µM,39.7 µM,42.1 µM,–,–,–,–,–,–,–,–,–

Compound,TGI [1],TGI [2],TGI [3],TGI [4],TGI [5] [µM],TGI [6],TGI [7],TGI [8],TGI [9],TGI [10],GI50 [1] [µM],GI50 [2] [µM],GI50 [3] [µM],GI50 [4] [µM],GI50 [5] [µM],GI50 [6] [µM],GI50 [7] [µM],GI50 [10] [µM],GI50 [8] [µM]
Cc1c2cc[n+](C)cc2c(C)c2c1oc1ccccc12,37.8 µM,14.1 µM,64.7 µM,30.1 µM,70.5,36.5 µM,64 µM,19.7 µM,10.1 µM,24.5 µM,–,–,–,–,–,–,–,–,–
c1c2c(cc3c1OCO3)-c1cc3ccc4c(c3c[n+]1CC2)OCO4,> 12.5 µM,> 5 µM,> 12.5 µM,> 12.5 µM,> 12.5,> 12.5 µM,> 12.5 µM,> 8.44 µM,> 11.1 µM,> 5.82 µM,–,–,–,–,–,–,–,–,–
Cc1[nH]n(-c2ccccc2)c(=O)c1C(N(CCc1ccccc1)C1=NCC(C)S1)(C(F)(F)F)C(F)(F)F (configuration not stated),84.9 µM,21.5 µM,> 100 µM,–,> 100,83.7 µM,88 µM,> 100 µM,29.5 µM,23.8 µM,–,–,–,–,–,–,–,–,–
CC1CC(Br)C(=O)O1 (configuration not stated),> 100 µM,> 100 µM,> 100 µM,> 100 µM,> 100,> 100 µM,> 100 µM,> 100 µM,–,> 100 µM,–,–,–,–,–,–,–,–,–
O=C1OC2(OC2c2ccc(Cl)cc2)c2ccccc21 (configuration not stated),–,–,–,> 100 µM,–,> 100 µM,> 100 µM,34 µM,> 100 µM,> 100 µM,–,–,–,–,–,–,–,–,–
CCO[C@]12CCC[C@H]1[C@@H]1C(=O)c3ccccc3C(=O)C1=C(C)O2,> 100 µM,> 100 µM,> 100 µM,> 100 µM,35.8,> 100 µM,> 100 µM,44.7 µM,–,–,–,–,–,–,–,–,–,–,–
CSc1ccc(/C=C2\N=C(c3ccccc3)N(/N=C3\C(=O)Nc4ccccc43)C2=O)cc1,> 100 µM,> 100 µM,> 100 µM,–,> 100,> 100 µM,> 100 µM,> 100 µM,–,> 100 µM,–,–,–,–,–,–,–,–,–
COc1ccc2c(c1)/C(=C\c1c(Cl)n(-c3ccccc3)c3ccccc13)C(=O)N2,> 100 µM,21.3 µM,21.4 µM,45.4 µM,29.5,51.4 µM,50 µM,92.7 µM,24.5 µM,14.6 µM,–,–,–,–,–,–,–,–,–
COc1cc([N+](=O)[O-])ccc1NC(=O)c1cccc([N+](=O)[O-])c1O,–,31 µM,–,61.9 µM,–,66.6 µM,> 100 µM,> 100 µM,> 100 µM,> 100 µM,–,–,–,–,–,–,–,–,–
Nc1nc(OCC2CCCCC2)c2[nH]cnc2n1,41.2 µM,67.2 µM,> 64.3 µM,55.5 µM,> 100,81.5 µM,53.1 µM,37.7 µM,73.7 µM,74 µM,–,–,–,–,–,–,–,–,–
CC1(C=O)CCC23COC4(CCC5C6(C)CCC(OC7OCC(OC8OC(CO)C(O)C(OC9OC(CO)C(O)C(O)C9O)C8OC8OCC(O)C(O)C8O)C(O)C7OC7OC(CO)C(O)C(O)C7O)C(C)(C)C6CCC5(C)C4(C)CC2O)C3C1 (configuration not stated),2.67 µM,2.96 µM,2.77 µM,4.45 µM,2.07,3.53 µM,2.55 µM,–,3.47 µM,2.74 µM,–,–,–,–,–,–,–,–,–
COC(=O)/C=C1\CCCN1CCc1cc2c(cc1CC#N)OCO2,> 100 µM,81.2 µM,> 100 µM,> 100 µM,> 100,> 100 µM,> 100 µM,> 100 µM,> 100 µM,> 100 µM,–,–,–,–,–,–,–,–,–
CCOC(=O)Nc1cc2c(c(N)n1)N=C(c1ccc3ccccc3c1)CN2,24.7 µM,4.69 µM,> 100 µM,–,> 100,23.8 µM,> 56.8 µM,8.1 µM,3.5 µM,1.49 µM,–,–,–,–,–,–,–,–,–
Cc1ccc(N=NC(C2=NC(=O)CS2)c2nc3ccccc3[nH]2)cc1 (configuration not stated),–,> 100 µM,–,> 100 µM,–,> 100 µM,> 100 µM,–,> 100 µM,> 100 µM,–,–,–,–,–,–,–,–,–
Cc1ccc([N+](=O)[O-])cc1S(=O)(=O)Nc1ccc(C2=NOC(c3ccccc3O)C2)cc1 (configuration not stated),> 100 µM,49.4 µM,> 100 µM,> 100 µM,14,71.8 µM,> 100 µM,> 100 µM,> 100 µM,34.5 µM,–,–,–,–,–,–,–,–,–
